Calls of active or inactive are those of the source. No cut-off for these calls is given here.
How the values were obtained:
[1] = target: Serine/threonine-protein kinase 38-like (Homo sapiens) (UniProt Q9Y2H1); test: Inhibition of NDR2 Lys1 labeling site harbouring KDTGHIYAMKILR in human A-375 cells at 5 uM by KiNativ Profiling analysis relative to control; format: cell-based
[2] = target: Serine/threonine-protein kinase 16 (Homo sapiens) (UniProt O75716); test: Inhibition of MPSK1 Lys2 labeling site in human A-375 cells at 0.5 uM by KiNativ Profiling analysis relative to control; format: cell-based
[3] = target: Mitogen-activated protein kinase kinase kinase 11 (Homo sapiens) (UniProt Q16584); test: Inhibition of MLK3 (unknown origin) at 1 uM by Ambit Kinomescan binding assay relative to control
[4] = target: SNF-related serine/threonine-protein kinase (Homo sapiens) (UniProt Q9NRH2); test: Inhibition of SNRK (unknown origin) at 1 uM by Ambit Kinomescan binding assay relative to control
[5] = target: Mitogen-activated protein kinase kinase kinase kinase 5 (Homo sapiens) (UniProt Q9Y4K4); test: Inhibition of MAP4K5 (unknown origin) at 1 uM by Ambit Kinomescan binding assay relative to control; values are per cent of control
[6] = target: T1, Serine/threonine-protein kinase greatwall (Homo sapiens) (UniProt Q96GX5); test: Inhibition of MASTL ATP labeling site in human Huh-7 cells at 1 uM by KiNativ Profiling analysis relative to control; format: cell-based
T1 sequence (whole entry): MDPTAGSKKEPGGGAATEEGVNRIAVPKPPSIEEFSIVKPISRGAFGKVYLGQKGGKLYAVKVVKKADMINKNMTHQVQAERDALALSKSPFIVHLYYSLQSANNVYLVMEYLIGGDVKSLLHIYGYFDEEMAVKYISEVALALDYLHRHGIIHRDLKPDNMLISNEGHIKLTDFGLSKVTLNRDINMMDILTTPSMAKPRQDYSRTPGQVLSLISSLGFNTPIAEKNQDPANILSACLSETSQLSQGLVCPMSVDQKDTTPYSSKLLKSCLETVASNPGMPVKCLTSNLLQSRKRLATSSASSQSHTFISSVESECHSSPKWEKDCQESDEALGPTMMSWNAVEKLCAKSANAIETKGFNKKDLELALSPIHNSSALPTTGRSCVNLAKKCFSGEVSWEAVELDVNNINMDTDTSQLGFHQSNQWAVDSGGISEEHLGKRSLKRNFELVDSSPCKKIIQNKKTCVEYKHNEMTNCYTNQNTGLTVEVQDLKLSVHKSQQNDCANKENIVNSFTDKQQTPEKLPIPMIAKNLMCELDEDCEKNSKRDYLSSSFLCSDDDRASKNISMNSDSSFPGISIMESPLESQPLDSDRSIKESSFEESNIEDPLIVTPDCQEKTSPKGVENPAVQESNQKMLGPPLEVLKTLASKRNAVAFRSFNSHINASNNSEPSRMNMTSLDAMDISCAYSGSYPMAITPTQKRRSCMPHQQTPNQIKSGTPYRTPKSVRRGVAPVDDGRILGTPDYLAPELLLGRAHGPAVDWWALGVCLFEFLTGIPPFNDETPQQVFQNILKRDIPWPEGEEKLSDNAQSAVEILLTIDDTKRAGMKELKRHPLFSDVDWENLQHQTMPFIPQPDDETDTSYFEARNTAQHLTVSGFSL

[7] = target: Cyclin-dependent kinase-like 2 (Homo sapiens) (UniProt Q92772); test: Inhibition of CDKL2 (unknown origin) at 10 uM by Ambit Kinomescan binding assay relative to control
[8] = target: Mitogen-activated protein kinase kinase kinase kinase 4 (Homo sapiens, UniProt O95819); test: Inhibition of ZC1/HGK K1 labeling site harbouring TGQLAAIKVMDVTEDEEEEIKLEINMLK in human Huh-7 cells at 1 uM by KiNativ Profiling analysis relative to control; format: cell-based
[9] = target: Protein kinase C epsilon type (Homo sapiens) (UniProt Q02156); test: Inhibition of PRKCE (unknown origin) at 10 uM by Ambit Kinomescan binding assay relative to control
[10] = tested on: Phosphatidylinositol 4,5-bisphosphate 3-kinase catalytic subunit alpha isoform (Homo sapiens), P42336 [E545K]; test: Inhibition of PIK3CA E545K mutant (unknown origin) at 10 uM by Ambit Kinomescan binding assay
[11] = tested on: Fibroblast growth factor receptor 3 (Homo sapiens), P22607 [G697C]; test: Inhibition of FGFR3 G697C mutant (unknown origin) at 10 uM by Ambit Kinomescan binding assay relative to control
[12] = target: MAST1/MAST2 (Homo sapiens) (UniProt Q9Y2H9+Q6P0Q8); test: Inhibition of MAST1/2 K2 labeling site in human Huh-7 cells at 10 uM by KiNativ Profiling analysis relative to control; format: cell-based
[13] = target: Casein kinase II subunit alpha (Homo sapiens) (UniProt P68400); test: Inhibition of CK2a1 in human Huh-7 cells at 1 uM by KiNativ Profiling analysis relative to control; format: cell-based
[14] = Inhibition of Wnk1/2/3 K2 labeling site in human Huh-7 cells at 10 uM by KiNativ Profiling analysis relative to control; details: condition cancer
[15] = target: Serine/threonine-protein kinase 26 (Homo sapiens) (UniProt Q9P289); test: Inhibition of MST4 (unknown origin) at 10 uM by Ambit Kinomescan binding assay
[16] = tested on: Receptor-type tyrosine-protein kinase FLT3 (Homo sapiens), P36888 [K663Q]; test: Inhibition of FLT3 K663Q mutant (unknown origin) at 10 uM by Ambit Kinomescan binding assay relative to control
[17] = target: cGMP-dependent protein kinase 1 (Homo sapiens) (UniProt Q13976); test: Inhibition of PRKG1 (unknown origin) at 10 uM by Ambit Kinomescan binding assay
[18] = target: Serine/threonine-protein kinase 38-like (Homo sapiens) (UniProt Q9Y2H1); test: Inhibition of NDR2 Lys1 labeling site in human Huh-7 cell lysate at 1 uM by KiNativ Profiling analysis relative to control; format: subcellular
[19] = target: Serine/threonine-protein kinase 10 (Homo sapiens) (UniProt O94804); test: Inhibition of LOK Lys2 labeling site harbouring DLKAGNVLMTLEGDIR in human Huh-7 cell lysate at 1 uM by KiNativ Profiling analysis relative to control; format: subcellular
[20] = target: Microtubule-associated serine/threonine-protein kinase 2 (Homo sapiens) (UniProt Q6P0Q8); test: Inhibition of MAST2 Lys2 labeling site harbouring DLKPDNLLITSMGHIK in human Huh-7 cells at 1 uM by KiNativ Profiling analysis relative to control; format: cell-based
[21] = target: Serine/threonine-protein kinase 4 (Homo sapiens) (UniProt Q13043); test: Inhibition of MST1 Lys1 labeling site harbouring AIHKETGQIVAIKQVPVESDLQEIIK in human Huh-7 cells at 1 uM by KiNativ Profiling analysis relative to control
[22] = target: Ribosomal protein S6 kinase alpha-3 (Homo sapiens) (UniProt P51812); test: Inhibition of RSK2 domain1 ATP labeling site in human Huh-7 cell lysate at 1 uM by KiNativ Profiling analysis relative to control; format: subcellular
Ribosomal protein S6 kinase alpha-3 (Homo sapiens), sequence (P51812 whole entry, the tested form may be a part): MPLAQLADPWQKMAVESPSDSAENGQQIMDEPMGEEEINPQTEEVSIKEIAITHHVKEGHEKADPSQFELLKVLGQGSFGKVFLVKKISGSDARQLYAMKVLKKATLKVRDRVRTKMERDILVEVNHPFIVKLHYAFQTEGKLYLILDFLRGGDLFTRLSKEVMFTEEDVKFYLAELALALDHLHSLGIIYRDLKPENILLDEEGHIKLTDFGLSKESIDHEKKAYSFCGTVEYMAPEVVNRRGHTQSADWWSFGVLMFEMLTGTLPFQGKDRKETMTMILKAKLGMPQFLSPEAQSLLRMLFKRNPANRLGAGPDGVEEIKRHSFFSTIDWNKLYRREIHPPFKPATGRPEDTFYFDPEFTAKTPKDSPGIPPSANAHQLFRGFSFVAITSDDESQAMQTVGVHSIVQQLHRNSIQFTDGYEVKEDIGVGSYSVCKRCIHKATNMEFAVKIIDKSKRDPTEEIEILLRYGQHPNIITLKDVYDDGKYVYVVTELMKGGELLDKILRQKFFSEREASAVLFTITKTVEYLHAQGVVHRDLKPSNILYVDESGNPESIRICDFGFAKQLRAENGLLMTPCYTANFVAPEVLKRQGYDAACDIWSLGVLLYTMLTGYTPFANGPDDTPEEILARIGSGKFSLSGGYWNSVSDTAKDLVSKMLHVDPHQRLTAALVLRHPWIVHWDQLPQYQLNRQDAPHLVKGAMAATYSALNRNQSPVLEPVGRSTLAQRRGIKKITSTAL

Serine/threonine-protein kinase 38-like (Homo sapiens), sequence (Q9Y2H1 2-464 limits assumed): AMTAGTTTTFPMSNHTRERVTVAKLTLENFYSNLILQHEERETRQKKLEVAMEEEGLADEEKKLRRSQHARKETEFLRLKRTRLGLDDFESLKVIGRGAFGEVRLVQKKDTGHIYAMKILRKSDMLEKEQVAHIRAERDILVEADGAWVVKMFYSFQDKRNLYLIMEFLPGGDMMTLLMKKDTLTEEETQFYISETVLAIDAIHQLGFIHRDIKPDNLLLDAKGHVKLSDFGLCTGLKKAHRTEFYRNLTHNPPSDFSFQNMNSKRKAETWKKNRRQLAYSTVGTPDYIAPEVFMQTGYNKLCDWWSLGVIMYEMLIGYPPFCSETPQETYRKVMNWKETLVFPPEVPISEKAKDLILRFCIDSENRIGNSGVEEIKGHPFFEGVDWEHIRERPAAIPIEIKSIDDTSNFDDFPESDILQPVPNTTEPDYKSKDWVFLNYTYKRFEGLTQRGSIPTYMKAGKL
Fibroblast growth factor receptor 3 (Homo sapiens), P22607 [G697C], sequence (P22607 whole entry G697C): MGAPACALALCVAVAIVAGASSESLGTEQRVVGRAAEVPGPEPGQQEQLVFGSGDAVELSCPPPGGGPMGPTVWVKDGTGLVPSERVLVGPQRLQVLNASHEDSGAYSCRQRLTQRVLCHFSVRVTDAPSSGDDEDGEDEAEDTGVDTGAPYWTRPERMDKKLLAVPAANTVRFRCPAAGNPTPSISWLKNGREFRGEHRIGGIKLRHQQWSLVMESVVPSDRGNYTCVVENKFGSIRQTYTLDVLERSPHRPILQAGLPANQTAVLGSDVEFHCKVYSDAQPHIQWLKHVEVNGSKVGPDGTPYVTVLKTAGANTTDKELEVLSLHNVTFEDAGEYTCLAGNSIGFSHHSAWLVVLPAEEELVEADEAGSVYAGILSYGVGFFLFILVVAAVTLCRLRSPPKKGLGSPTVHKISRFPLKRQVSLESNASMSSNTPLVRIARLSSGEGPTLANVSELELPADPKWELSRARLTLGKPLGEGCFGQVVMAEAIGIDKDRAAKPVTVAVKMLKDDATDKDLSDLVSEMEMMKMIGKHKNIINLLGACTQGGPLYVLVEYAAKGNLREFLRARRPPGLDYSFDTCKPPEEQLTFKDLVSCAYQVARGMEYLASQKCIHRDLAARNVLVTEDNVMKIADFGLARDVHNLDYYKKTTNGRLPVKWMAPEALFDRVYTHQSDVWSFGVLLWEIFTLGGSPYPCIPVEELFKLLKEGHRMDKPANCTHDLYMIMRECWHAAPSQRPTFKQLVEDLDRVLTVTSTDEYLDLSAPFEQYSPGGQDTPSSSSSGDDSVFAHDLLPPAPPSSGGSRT
Cyclin-dependent kinase-like 2 (Homo sapiens), sequence (Q92772 whole entry): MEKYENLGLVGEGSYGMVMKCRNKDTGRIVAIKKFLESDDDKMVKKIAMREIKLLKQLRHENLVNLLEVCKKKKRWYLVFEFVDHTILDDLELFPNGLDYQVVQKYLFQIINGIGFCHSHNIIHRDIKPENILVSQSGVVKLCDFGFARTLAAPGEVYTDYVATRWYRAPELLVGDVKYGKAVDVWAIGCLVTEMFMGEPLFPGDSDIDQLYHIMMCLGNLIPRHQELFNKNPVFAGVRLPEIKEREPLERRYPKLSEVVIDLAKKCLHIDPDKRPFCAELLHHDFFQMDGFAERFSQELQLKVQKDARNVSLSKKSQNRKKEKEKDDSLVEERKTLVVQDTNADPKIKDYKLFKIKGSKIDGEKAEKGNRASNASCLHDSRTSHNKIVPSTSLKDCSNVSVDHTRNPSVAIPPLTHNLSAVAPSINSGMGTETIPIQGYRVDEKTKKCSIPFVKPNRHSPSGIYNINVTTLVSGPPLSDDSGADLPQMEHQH
cGMP-dependent protein kinase 1 (Homo sapiens), sequence (Q13976 whole entry): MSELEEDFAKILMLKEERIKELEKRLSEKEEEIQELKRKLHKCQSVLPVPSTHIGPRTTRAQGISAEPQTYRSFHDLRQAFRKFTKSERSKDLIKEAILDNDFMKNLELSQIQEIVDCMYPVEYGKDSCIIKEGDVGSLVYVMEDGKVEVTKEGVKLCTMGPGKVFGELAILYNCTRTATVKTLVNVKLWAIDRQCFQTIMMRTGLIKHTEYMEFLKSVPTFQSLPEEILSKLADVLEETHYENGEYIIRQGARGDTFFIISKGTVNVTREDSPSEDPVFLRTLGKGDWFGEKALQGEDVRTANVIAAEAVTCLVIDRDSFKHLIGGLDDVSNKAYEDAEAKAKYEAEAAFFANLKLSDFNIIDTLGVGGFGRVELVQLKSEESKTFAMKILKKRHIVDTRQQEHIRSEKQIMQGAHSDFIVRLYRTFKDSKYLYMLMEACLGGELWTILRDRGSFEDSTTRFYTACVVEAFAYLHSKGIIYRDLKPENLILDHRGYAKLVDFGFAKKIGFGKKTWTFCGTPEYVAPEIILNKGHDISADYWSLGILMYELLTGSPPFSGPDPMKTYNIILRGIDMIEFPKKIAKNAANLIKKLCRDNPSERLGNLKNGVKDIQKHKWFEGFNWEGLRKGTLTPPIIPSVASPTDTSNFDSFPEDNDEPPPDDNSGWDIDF
Mitogen-activated protein kinase kinase kinase kinase 5 (Homo sapiens), sequence (Q9Y4K4 whole entry, looked up): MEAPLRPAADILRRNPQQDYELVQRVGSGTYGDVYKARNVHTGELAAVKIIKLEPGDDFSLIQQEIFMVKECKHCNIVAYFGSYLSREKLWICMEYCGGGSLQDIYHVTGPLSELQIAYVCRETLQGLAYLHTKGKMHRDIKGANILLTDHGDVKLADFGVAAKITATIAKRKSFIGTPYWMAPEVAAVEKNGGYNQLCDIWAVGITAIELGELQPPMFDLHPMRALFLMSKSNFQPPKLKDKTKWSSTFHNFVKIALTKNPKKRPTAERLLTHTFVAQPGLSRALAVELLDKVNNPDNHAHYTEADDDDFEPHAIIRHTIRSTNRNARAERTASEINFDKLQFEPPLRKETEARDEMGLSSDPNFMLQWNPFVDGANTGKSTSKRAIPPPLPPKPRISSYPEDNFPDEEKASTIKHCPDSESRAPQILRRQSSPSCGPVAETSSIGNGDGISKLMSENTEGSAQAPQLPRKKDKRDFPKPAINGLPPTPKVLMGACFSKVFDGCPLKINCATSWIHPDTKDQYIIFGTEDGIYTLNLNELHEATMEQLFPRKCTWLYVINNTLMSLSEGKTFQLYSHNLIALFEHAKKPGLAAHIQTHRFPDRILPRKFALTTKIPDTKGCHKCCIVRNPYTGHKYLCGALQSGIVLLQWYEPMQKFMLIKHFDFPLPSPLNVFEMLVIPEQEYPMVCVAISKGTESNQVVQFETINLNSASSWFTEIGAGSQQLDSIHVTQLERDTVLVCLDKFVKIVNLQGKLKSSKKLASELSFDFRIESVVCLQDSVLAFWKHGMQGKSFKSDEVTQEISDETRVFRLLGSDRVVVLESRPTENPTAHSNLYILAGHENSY
Serine/threonine-protein kinase 4 (Homo sapiens), sequence (Q13043 whole entry, looked up, the tested form may be a part): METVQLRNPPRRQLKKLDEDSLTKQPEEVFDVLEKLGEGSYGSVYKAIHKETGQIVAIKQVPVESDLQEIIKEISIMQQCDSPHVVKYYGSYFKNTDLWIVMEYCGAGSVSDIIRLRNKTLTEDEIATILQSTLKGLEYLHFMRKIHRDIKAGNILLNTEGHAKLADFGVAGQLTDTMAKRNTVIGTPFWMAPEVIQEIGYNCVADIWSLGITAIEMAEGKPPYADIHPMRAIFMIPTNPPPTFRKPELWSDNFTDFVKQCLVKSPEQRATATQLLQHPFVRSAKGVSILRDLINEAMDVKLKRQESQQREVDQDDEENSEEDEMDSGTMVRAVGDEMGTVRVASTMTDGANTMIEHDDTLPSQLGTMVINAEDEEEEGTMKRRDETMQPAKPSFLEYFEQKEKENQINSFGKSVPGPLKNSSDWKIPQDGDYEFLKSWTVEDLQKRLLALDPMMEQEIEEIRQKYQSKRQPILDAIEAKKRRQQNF
Serine/threonine-protein kinase 26 (Homo sapiens), sequence (Q9P289 2-416 limits assumed): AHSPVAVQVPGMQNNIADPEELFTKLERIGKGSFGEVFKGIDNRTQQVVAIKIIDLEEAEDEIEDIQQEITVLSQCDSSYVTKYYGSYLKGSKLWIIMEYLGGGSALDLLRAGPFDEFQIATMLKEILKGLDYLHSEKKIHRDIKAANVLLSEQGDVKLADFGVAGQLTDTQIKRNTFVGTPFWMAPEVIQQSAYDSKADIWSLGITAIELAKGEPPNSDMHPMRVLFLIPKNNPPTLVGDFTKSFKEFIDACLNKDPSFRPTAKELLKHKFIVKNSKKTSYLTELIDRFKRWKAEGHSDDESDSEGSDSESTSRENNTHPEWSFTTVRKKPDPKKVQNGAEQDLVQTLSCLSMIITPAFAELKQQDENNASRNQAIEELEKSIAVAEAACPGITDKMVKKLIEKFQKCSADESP

SMILES: CCN1CCN(Cc2ccc(NC(=O)c3ccc(C)c(/C=C/c4cnc5[nH]ccc5c4OC)c3)cc2C(F)(F)F)CC1
- inhibition [1]: 14.8%
- inhibition [2]: 15%
- inhibition [3]: 23%
- inhibition [4]: 100%
- residual activity [5]: 7.2%

SMILES: CCN1CCN(Cc2ccc(NC(=O)c3ccc(C)c(Oc4ccnc5[nH]ccc45)c3)cc2C(F)(F)F)CC1
- inhibition [6]: 3.6%
- inhibition [7]: 0.9%
- inhibition [8]: 7.6%
- inhibition [9]: 20%
- inhibition [10]: inactive
- inhibition [11]: 16%
- inhibition [12]: 17.6%
- inhibition [13]: 16%
- inhibition at 10 µM [14]: 7.8%
- inhibition [15]: inactive
- inhibition [16]: 0%
- inhibition [17]: inactive

SMILES: CNc1cc(Oc2cc(C(=O)Nc3cc(N4CCN(C)CC4)cc(C(F)(F)F)c3)ccc2C)ncn1
- inhibition [18]: -6.7%
- inhibition [19]: -8.9%
- inhibition [20]: 53.8%
- inhibition [21]: 9.9%
- inhibition [22]: -2.6%
